In patent US10351827B2, “Method for differentiating induced pluripotent stem cells into renal proximal tubular cell-like cells” (priority 2013, dated 2019):
Where two headings read alike, the source gives them in different places.

Legend:
[1] = tested on: PTC in humans; conditions: cited from earlier work
[2] = tested on: iPS(Foreskin)-4-derived d8 HPTC-like cells
[3] = tested on: hiPSC-derived HPTC-like cells; assay: nephrotoxicology in vitro model based on interleukin-6/interleukin-8 expression (Example 1)
[4] = tested on: HPTCs; conditions: similar experiments performed with HPTCs; cited from earlier work
[5] = tested on: hiPSC-derived HPTC-like cells
[6] = molecular target: OCT2 (Homo sapiens, UniProt O15244); conditions: co-incubation of 100 μg/ml rifampicin with 2 mM cimetidine, iPS(Foreskin)-4-derived d8 cells
[7] = 1 μg/ml, overnight (16 h), qPCR, normalized to vehicle control (=1), mean +/- s.d., n=3
[8] = 10 μg/ml, overnight (16 h), qPCR, normalized to vehicle control (=1), mean +/- s.d., n=3
[9] = 100 μg/ml, overnight (16 h), qPCR, normalized to vehicle control (=1), mean +/- s.d., n=3
[10] = 1,000 μg/ml, overnight (16 h), qPCR, normalized to vehicle control (=1), mean +/- s.d., n=3

Chain of OCT2 (O15244 whole entry): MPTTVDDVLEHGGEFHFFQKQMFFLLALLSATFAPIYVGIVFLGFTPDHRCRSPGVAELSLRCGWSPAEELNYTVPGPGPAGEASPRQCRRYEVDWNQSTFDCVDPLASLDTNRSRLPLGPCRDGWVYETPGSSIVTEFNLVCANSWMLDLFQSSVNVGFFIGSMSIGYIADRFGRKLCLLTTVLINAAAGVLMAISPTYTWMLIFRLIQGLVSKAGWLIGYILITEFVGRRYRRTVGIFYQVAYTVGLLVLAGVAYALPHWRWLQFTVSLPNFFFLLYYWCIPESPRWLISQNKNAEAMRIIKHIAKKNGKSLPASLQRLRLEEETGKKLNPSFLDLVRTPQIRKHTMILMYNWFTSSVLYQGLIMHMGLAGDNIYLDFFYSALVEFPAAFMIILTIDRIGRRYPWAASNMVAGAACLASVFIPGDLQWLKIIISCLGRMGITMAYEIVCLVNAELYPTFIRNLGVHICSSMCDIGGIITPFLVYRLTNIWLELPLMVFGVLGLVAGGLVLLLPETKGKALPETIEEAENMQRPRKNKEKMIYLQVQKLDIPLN

Molecule	nephrotoxicity / toxicity for PTC in humans [1]	IL6 Expression Levels ([2]; human, 16 h, 1 μg/ml)	IL8 Expression Levels ([2]; human, 16 h, 1 μg/ml)	IL6 Expression Levels ([2]; human, 16 h, 10 μg/ml)	IL8 Expression Levels ([2]; human, 16 h, 10 μg/ml)	IL6 Expression Levels ([2]; human, 16 h, 100 μg/ml)	IL8 Expression Levels ([2]; human, 16 h, 100 μg/ml)	IL6 Expression Levels ([2]; human, 16 h, 1000 μg/ml)	IL8 Expression Levels ([2]; human, 16 h, 1000 μg/ml)	also measured
CC(=O)OCC1=C(C(=O)O)N2C(=O)[C@@H](NC(=O)CCC[C@@H](N)C(=O)O)[C@H]2SC1 [Cephalosporin C]	directly toxic for PTC									
CC1=C2C(=CO[C@H](C)[C@H]2C)C(O)=C(C(=O)O)C1=O [Citrinin]	directly toxic for PTC									increase of IL6 expression ([2]; human): ~6 fold; increase of IL8 expression ([2]; human): no increase in IL8 expression was observed
OCCO [Ethylene glycol]	nephrotoxicants that do not damage PTC directly									
CC(=O)[O-].CC(=O)[O-].[Pb+2] [Lead acetate]										IL6 Expression Levels [2, 7]: 1.3 ± 0.3; IL8 Expression Levels [2, 7]: 0.4 ± 0.2; IL6 Expression Levels [2, 8]: 1.2 ± 0.3; IL8 Expression Levels [2, 8]: 1.3 ± 0.1; IL6 Expression Levels [2, 9]: 1.5 ± 0.1; IL8 Expression Levels [2, 9]: 5.0 ± 0.8; IL6 Expression Levels [2, 10]: 4.3 ± 0.8; IL8 Expression Levels [2, 10]: 29.4 ± 5.1
CCC[C@@H]1C[C@@H](C(=O)N[C@@H]([C@H]2O[C@H](SC)[C@H](O)[C@@H](O)[C@H]2O)[C@@H](C)O)N(C)C1 [Lincomycin]		1.2 ± 0.1	1.2 ± 1.2	1.3 ± 0.1	1.2 ± 0.3	1.2 ± 0.1	2.4 ± 0.9	1.4 ± 0.2	6.1 ± 0.5	
Cl[C@H]1[C@H](Cl)[C@@H](Cl)[C@@H](Cl)[C@H](Cl)[C@H]1Cl [Lindane]	nephrotoxicants that do not damage PTC directly									
[Cl-].[Li+] [Lithium chloride]	nephrotoxicants that do not damage PTC directly									
COc1ccc2[nH]cc(CCNC(C)=O)c2c1 [Melatonin]		6.5 ± 0.8	9.8 ± 2.4	6.1 ± 0.4	6.9 ± 1.0	4.4 ± 0.4	1.9 ± 0.9	1.1 ± 0.1		
C[n+]1ccc(-c2cc[n+](C)cc2)cc1 [Paraquat]	directly toxic for PTC									IL-6 expression after treatment [3]: increase; cell numbers after treatment [4]: a decrease in cell numbers was not observed
CCOc1ccc(NC(C)=O)cc1 [Phenacetin]		7.2 ± 0.2	23.3 ± 3.1	7.0 ± 1.1	11.1 ± 0.8	5.3 ± 0.1	7.7 ± 4.7	0.7 ± 0.2	6.4 ± 2.1	
[K+].[K+].[O]=[Cr](=[O])([O-])[O][Cr](=[O])(=[O])[O-] [Potassium dichromate]										IL6 Expression Levels [2, 7]: 1.2 ± 0.4; IL8 Expression Levels [2, 7]: 0.5 ± 0.0; IL6 Expression Levels [2, 8]: 1.0 ± 0.0; IL8 Expression Levels [2, 8]: 0.7 ± 0.1; IL6 Expression Levels [2, 9]: 3.3 ± 0.3; IL8 Expression Levels [2, 9]: 0.8 ± 0.0; IL6 Expression Levels [2, 10]: 3.7 ± 0.4; IL8 Expression Levels [2, 10]: 1.2 ± 0.0
COc1ccc(C[C@H](N)C(=O)N[C@H]2[C@@H](O)[C@H](n3cnc4c(N(C)C)ncnc43)O[C@@H]2CO)cc1 [Puromycin]		1.9 ± 0.2	0.8 ± 0.2	14.1 ± 1.2	255.7 ± 28.2	29.0 ± 1.2	3,284.1 ± 1,069.3	26.6 ± 4.3	3,852.3 ± 309.9	
NC(=O)c1ncn([C@@H]2O[C@H](CO)[C@@H](O)[C@H]2O)n1 [Ribavirin]		1.4 ± 0.1	1.1 ± 0.4	1.5 ± 0.1	0.5 ± 0.1	1.2 ± 0.3	0.2 ± 0.0	1.0 ± 0.1	0.2 ± 0.0	
CO[C@H]1/C=C/O[C@@]2(C)Oc3c(C)c(O)c4c(O)c(c(/C=N/N5CCN(C)CC5)c(O)c4c3C2=O)NC(=O)/C(C)=C\C=C\[C@H](C)[C@H](O)[C@@H](C)[C@@H](O)[C@@H](C)[C@H](OC(C)=O)[C@@H]1C [Rifampicin]		5.8 ± 0.9	2.5 ± 0.4	4.5 ± 0.3	3.4 ± 0.3	2.3 ± 0.2	9.7 ± 0.3	9.3 ± 0.6	18.2 ± 1.2	increase of IL6 expression ([2]; human, 16 h, 100 μg/ml): ~17 fold; increase of IL8 expression ([2]; human, 16 h, 100 μg/ml): ~18 fold; IL-6 expression after treatment [5]: increase; IL-8 expression after treatment [5]: increase
C=CC[C@@H]1/C=C(\C)C[C@H](C)C[C@H](OC)[C@H]2O[C@@](O)(C(=O)C(=O)N3CCCC[C@H]3C(=O)O[C@H](/C(C)=C/[C@@H]3CC[C@@H](O)[C@H](OC)C3)[C@H](C)[C@@H](O)CC1=O)[C@H](C)C[C@@H]2OC [Tacrolimus]		6.6 ± 0.6	7.8 ± 0.4	6.1 ± 0.2	5.1 ± 0.6					
NC[C@H]1O[C@H](O[C@H]2[C@H](O)[C@@H](O[C@H]3O[C@H](CO)[C@@H](O)[C@H](N)[C@H]3O)[C@H](N)C[C@@H]2N)[C@H](N)C[C@@H]1O [Tobramycin]		1.3 ± 0.1	0.5 ± 0.1	1.3 ± 0.1	0.6 ± 0.1	1.4 ± 0.1	0.9 ± 0.3	2.7 ± 0.4	25.5 ± 1.5	
CC(C)[C@H](N)C(=O)OCCOCn1cnc2c(=O)[nH]c(N)nc21 [Valacyclovir]		1.3 ± 0.1	1.5 ± 0.1	1.3 ± 0.1	1.4 ± 0.1	1.6 ± 0.1	1.0 ± 0.5	2.8 ± 0.4	32.5 ± 1.4	
CN[C@H](CC(C)C)C(=O)N[C@H]1C(=O)N[C@@H](CC(N)=O)C(=O)N[C@H]2C(=O)N[C@H]3C(=O)N[C@H](C(=O)N[C@H](C(=O)O)c4cc(O)cc(O)c4-c4cc3ccc4O)[C@H](O)c3ccc(c(Cl)c3)Oc3cc2cc(c3O[C@@H]2O[C@H](CO)[C@@H](O)[C@H](O)[C@H]2O[C@H]2C[C@](C)(N)[C@H](O)[C@H](C)O2)Oc2ccc(cc2Cl)[C@H]1O [Vancomycin]										IL6 Expression Levels [2, 7]: 1.5 ± 0.3; IL8 Expression Levels [2, 7]: 0.7 ± 0.0; IL6 Expression Levels [2, 8]: 1.4 ± 0.1; IL8 Expression Levels [2, 8]: 0.6 ± 0.2; IL6 Expression Levels [2, 9]: 1.4 ± 0.1; IL8 Expression Levels [2, 9]: 2.9 ± 0.2; IL6 Expression Levels [2, 10]: 3.1 ± 0.2; IL8 Expression Levels [2, 10]: 98.5 ± 4.5
CN/C(=N/CCSCc1nc[nH]c1C)NC#N [cimetidine]										reduction of rifampicin-induced IL6 expression [6]: 40%; reduction of rifampicin-induced IL8 expression [6]: 26%
Gentamicin	directly toxic for PTC									cell numbers after treatment [4]: a decrease in cell numbers was not observed
